Results published in the NIST ThermoML archive (doi:10.1016/j.jct.2013.07.010).

Legend:
[1] = 101 kPa, Liquid; for viscosity: Capillary tube (Ostwald / Ubbelohde) method; for mass density: Vibrating tube method
[2] = cn = amount concentration of the nth substance listed, in mol/dm3; conditions: 101 kPa, Liquid; for viscosity: Capillary tube (Ostwald / Ubbelohde) method; for mass density: Vibrating tube method

CO [methanol]
[1]
Conditions | mass density [kg/m3] | viscosity [mPa·s]
298.15 K | 786.62 | 0.5451
308.15 K | 777.18 | 0.476
318.15 K | 767.74 | 0.4183

CO [methanol] + CCCC[N+](CCCC)(CCCC)CCCC.[Br-]
[2], c2 = 0
Conditions | mass density [kg/m3] | viscosity [mPa·s]
298.15 K | 786.62 | 0.5451
308.15 K | 777.18 | 0.476
318.15 K | 767.74 | 0.4183

CCCC[N+](CCCC)(CCCC)CCCC.[Br-] [tetrabutylammonium bromide] + CO
[2]
Conditions | mass density, 298.15 K [kg/m3] | mass density, 308.15 K [kg/m3] | mass density, 318.15 K [kg/m3] | viscosity, 298.15 K [mPa·s] | viscosity, 308.15 K [mPa·s] | viscosity, 318.15 K [mPa·s]
c1 = 0.02 | 790.69 | 780.94 | 771.06 | 0.5542 | 0.4951 | 0.439
c1 = 0.04 | 792.74 | 783.43 | 773.92 | 0.581 | 0.5135 | 0.4469
c1 = 0.05 | 794.89 | 785.33 | 775.68 | 0.5973 | 0.5274 | 0.4584
